Measured values taken from US20240075093A1, “COMPOSITIONS AND METHODS OF TREATING A PI3K MEDIATED DISEASE” (VIRGINIA TECH INTELLECTUAL PROPERTIES, INC., priority 2020, published 2024).
pIC50: −log10 of the molar value. Values belong to the compound of their own block, whether it stands above or below them. Where no end group is shown, it is not given here.

Key:
MDA-MB-435S cells = assay: melanoma cell viability (CellTiter Blue); assay type: cell-based; conditions: 0-40 μM, CellTiter Blue
Protocol: (§1) (FIG. 49A) Immunoblotting of p110s and signaling molecules. 3-actin (ACTB) was used as the loading control. (FIG. 49B) Summary of genetic mutations and protein levels in melanoma cells. Information regarding hot spot mutations was retrieved from e.g., DepMap. (FIG. 49C) Cells were treated with 0-40 μM of inhibitors. Cell viability was measured using CellTiter Blue. IC50s were calculated using Graphpad.
(§2) (FIG. 52A) Cells were treated with 10 μM Selectide-18-FITC for 1 h and imaged immediately or after 96h. (FIG. 52B) Selectide-18-FITC in melanoma cells were imaged at different times. FITC was quantified using Image J and FITC intensities at different times were normalized with that at 1 h. Half-life was calculated using GraphPad. (FIG. 52C) UACC-62, MelST, or MeWo cells were treated with 50 μM of Selectide-18 for 4 days with daily repeated dosing. (FIG. 52D) MelST or melanoma cells were treated with 50 μM of Selectide-18 for 6 days with daily repeated dosing. Cell viability was measured using Cell-Titer Blue. (FIG. 52E) MelST, UACC-62, or MeWo cells were treated with Scramble or Selectide-18 at different doses. IC50s were calculated using GraphPad. (FIG. 52F) Nod scid mice bearing UACC-62 subcutaneous tumors were treated with Selectide-18 (3 mg/kg) intratumoral injection/daily) for 16 days. Tumors were measured using a caliper and tumor volumes were calculated as (length×width2))/2. Student t test or ANOVA was used to determine P values. ns: not significant; **: P<0.01; ***P<0.001.

p110β^hyper cells = assay: melanoma cell viability (CellTiter Blue); assay type: cell-based; conditions: 0-40 μM of inhibitors; for selective inhibition of cell viability: p110β^hyper cells versus MelST
Protocol: as §1, §2

PI3K in SK-MEL-94 cells = assay: PI3K activity in melanoma cells (immunoblotting); assay type: cell-based; conditions: 10 μM AZD6482
PI3K in SK-MEL-147 cells = assay: PI3K activity in melanoma cells (immunoblotting); assay type: cell-based; conditions: 10 μM AZD6482
LN229/GSCs [1] = assay: wound-healing (migration) assay; assay type: cell-based; conditions: 8 μM, 24 hours
Protocol: (§3) (FIG. 8A) Wound-healing assay. Cells were plated confluently and then treated with PI3K isoform-selective inhibitors at 8 μM for 24 hours. Cells were imaged at 0- and 24-hour time point. Images of 24-hour time point are shown. Scale bar: […]. (FIG. 8B-8D) Quantification of migration distance. Images from three different areas were analyzed using Image J. Migration distances were obtained by subtracting 24-hour measurements with those of 0-hour.

SF295 cells [2] = assay: wound-healing (migration) assay; assay type: cell-based; conditions: 8 μM, 24 hours
Protocol: as §3

tumor growth in mice = assay: GBM tumor growth in mice; assay type: in vivo
AKT = AKT activation in GBM cells; assay type: cell-based
LN229/GSCs [3] = assay: TMZ sensitivity of LN229/GSCs; assay type: cell-based; conditions: Homo sapiens, LN-229
p110b = p110b (Homo sapiens, UniProt P42338); assay: p110b activity ELISA (cell-free kinase assay); assay type: biochemical; conditions: ELISA; for activity of p110b: 100 nM, isolated protein subunit
p110b, sequence (P42338 whole entry): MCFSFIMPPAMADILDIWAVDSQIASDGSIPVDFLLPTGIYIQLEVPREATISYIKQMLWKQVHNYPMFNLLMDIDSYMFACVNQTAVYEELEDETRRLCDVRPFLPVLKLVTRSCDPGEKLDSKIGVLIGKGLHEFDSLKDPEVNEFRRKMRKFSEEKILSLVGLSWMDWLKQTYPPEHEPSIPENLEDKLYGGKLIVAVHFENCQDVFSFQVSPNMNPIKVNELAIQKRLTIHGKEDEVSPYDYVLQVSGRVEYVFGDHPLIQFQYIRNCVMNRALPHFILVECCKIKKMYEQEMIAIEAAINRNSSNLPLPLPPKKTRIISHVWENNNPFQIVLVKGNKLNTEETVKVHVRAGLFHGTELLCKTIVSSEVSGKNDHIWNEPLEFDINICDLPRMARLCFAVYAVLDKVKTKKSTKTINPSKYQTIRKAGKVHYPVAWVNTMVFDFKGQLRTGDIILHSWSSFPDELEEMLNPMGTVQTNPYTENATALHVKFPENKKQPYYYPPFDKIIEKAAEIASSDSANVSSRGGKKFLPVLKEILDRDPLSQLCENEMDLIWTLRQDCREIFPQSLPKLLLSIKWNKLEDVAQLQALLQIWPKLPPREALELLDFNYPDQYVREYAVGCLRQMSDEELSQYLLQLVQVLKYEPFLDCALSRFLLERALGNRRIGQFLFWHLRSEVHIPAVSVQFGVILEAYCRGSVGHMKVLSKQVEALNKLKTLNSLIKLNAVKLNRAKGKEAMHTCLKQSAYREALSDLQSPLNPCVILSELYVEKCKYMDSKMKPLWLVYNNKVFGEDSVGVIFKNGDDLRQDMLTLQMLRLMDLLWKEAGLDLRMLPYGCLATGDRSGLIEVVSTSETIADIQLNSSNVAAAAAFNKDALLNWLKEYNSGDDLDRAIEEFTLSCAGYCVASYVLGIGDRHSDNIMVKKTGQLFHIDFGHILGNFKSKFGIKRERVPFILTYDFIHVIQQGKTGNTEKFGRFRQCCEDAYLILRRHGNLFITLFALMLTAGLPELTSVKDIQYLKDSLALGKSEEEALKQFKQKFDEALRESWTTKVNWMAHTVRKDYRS
Excerpt: The activity of the p110b PI3K catalytic subunit was monitored via ELISA upon increasing doses of Ante-Selectide-18.
(§4) Relative activity is the ratio of respective treated groups to their non-treated controls.
(FIG. 51A) 3D of a p110β/p85α complex determined by SWISS-MODEL and Cluspro. (FIG. 51B) Protein sequences were aligned using COBALT. C2 domains (top) are show. Red bars: same residues; Grey bars: different residues; Red lines: missing residues. […] in p110β C2 (bottom) is shown and termed as 018. Docking of p110β and p85α (FIG. 51C) or p110α and p85α (FIG. 51D) was done by SWISS-MODEL, Cluspro, and Chimera. The 018 motif is labeled in magenta. Deletion of β18 motif (FIG. 51E) changed the 3D shapes of p110β/p85 (FIG. 51C). (FIG. 51F) p110β cell-free kinase assay. An enzyme-linked immunosorbent assay (ELISA) was used to measure levels of lipids PIP2/PIP3. (FIG. 51G) Effect of PI3K inhibitors on p110s using ELISA. p110β (FIG. 51H) or p110α (FIG. 51I) was docked with Selectide-18-bound p85α using Cluspro/Chimera.
(§5) Applicant also included a control scramble peptide containing the antennapedia sequence followed by the amino acid sequence of Ante-Selectide-18 randomly scrambled. […] Applicant reports that this drug is not effective at inhibiting the kinase activity of p110b or other PI3K subunits at 100 nM, showing the promise of the Ante-Selectide-18 peptide as a potent selective p110b inhibitor at a low dose.

p110c = p110c (Homo sapiens, UniProt P42336); assay: PI3K subunit activity ELISA; assay type: biochemical; conditions: 100 nM
p110c, sequence (P42336 whole entry): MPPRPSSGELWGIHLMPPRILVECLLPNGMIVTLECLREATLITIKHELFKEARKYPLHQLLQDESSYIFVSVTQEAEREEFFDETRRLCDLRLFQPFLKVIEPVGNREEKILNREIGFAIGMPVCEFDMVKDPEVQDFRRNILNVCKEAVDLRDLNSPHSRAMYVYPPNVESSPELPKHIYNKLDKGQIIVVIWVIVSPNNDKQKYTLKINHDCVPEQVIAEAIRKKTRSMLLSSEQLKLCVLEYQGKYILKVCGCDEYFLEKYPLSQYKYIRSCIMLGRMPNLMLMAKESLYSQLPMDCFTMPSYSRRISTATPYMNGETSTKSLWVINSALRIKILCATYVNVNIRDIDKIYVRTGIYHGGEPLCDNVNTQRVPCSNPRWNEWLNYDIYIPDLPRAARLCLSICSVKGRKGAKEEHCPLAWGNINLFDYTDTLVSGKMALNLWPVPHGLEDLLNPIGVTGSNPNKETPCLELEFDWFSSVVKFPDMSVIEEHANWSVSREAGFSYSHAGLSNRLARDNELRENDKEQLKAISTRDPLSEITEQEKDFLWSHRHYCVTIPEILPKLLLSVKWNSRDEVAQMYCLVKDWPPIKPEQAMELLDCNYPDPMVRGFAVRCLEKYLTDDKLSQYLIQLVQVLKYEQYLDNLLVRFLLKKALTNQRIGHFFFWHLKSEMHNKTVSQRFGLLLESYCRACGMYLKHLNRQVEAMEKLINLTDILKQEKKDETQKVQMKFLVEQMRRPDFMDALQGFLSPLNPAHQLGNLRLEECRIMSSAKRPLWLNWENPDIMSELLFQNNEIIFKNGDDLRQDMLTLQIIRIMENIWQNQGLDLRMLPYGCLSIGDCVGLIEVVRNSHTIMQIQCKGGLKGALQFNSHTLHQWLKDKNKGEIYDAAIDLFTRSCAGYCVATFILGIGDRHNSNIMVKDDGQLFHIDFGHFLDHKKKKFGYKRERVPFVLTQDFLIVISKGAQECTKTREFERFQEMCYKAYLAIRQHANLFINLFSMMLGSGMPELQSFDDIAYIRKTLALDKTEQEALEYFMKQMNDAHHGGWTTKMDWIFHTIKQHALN
Protocol: as §4, §5

p110γ = p110γ (Homo sapiens, UniProt P48736); assay: PI3K subunit activity ELISA; assay type: biochemical; conditions: 100 nM
p110γ, sequence (P48736 whole entry): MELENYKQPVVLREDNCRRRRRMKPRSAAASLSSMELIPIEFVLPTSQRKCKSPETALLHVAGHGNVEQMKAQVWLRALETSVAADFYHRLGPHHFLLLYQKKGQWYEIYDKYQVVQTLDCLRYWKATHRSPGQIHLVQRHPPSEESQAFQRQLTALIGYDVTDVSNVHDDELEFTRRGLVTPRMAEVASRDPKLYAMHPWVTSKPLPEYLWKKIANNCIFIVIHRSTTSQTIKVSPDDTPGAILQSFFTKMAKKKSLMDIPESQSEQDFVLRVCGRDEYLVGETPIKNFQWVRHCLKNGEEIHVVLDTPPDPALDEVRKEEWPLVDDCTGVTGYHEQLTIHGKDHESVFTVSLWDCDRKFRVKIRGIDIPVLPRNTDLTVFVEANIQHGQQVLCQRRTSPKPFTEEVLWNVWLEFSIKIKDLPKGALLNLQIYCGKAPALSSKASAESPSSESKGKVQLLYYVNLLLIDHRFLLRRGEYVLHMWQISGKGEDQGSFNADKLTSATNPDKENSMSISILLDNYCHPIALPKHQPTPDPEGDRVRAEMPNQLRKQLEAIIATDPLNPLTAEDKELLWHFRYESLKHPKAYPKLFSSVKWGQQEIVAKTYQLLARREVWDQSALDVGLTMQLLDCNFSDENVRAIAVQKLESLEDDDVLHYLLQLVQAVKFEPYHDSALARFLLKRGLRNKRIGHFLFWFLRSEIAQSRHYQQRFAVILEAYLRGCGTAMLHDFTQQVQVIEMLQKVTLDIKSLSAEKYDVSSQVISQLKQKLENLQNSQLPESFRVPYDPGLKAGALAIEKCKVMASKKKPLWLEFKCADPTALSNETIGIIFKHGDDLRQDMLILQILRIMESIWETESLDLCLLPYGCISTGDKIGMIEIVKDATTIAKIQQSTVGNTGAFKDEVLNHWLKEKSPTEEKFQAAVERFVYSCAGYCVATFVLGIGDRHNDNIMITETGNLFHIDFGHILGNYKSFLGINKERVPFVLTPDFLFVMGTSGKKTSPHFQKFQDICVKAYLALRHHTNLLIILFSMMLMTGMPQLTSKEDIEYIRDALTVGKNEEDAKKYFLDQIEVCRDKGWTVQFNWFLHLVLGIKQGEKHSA
Protocol: as §4, §5

p110δ = p110δ (Homo sapiens, UniProt O00329); assay: PI3K subunit activity ELISA; assay type: biochemical; conditions: 100 nM
p110δ, sequence (O00329 whole entry): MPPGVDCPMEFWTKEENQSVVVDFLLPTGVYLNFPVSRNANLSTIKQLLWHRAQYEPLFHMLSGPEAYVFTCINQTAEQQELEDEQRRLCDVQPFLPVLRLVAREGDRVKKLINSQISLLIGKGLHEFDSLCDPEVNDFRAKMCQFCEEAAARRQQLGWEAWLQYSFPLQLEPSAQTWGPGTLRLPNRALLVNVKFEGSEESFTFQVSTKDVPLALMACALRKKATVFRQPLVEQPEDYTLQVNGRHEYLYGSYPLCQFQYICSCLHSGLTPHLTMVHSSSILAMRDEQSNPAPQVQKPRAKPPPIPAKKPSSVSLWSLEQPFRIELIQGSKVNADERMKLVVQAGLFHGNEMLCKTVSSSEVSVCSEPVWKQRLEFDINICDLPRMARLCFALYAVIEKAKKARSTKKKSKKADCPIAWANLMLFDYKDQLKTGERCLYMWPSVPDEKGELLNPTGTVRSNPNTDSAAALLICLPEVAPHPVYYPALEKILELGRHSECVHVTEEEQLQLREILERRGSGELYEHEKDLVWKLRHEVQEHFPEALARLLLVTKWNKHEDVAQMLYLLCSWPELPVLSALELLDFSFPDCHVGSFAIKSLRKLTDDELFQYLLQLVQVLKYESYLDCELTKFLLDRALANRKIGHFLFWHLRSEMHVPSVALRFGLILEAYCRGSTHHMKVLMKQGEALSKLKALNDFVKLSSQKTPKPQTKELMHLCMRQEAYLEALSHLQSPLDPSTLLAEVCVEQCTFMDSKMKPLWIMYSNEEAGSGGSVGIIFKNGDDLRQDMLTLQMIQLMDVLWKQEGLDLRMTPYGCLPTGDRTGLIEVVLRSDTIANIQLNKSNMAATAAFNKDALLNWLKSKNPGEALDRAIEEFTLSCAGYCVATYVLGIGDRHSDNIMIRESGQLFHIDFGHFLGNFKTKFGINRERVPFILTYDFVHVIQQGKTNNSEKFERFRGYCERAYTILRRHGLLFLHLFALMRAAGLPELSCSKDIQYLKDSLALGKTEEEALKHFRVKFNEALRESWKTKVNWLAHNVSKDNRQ
p110δ, sequence (P27986 whole entry partner): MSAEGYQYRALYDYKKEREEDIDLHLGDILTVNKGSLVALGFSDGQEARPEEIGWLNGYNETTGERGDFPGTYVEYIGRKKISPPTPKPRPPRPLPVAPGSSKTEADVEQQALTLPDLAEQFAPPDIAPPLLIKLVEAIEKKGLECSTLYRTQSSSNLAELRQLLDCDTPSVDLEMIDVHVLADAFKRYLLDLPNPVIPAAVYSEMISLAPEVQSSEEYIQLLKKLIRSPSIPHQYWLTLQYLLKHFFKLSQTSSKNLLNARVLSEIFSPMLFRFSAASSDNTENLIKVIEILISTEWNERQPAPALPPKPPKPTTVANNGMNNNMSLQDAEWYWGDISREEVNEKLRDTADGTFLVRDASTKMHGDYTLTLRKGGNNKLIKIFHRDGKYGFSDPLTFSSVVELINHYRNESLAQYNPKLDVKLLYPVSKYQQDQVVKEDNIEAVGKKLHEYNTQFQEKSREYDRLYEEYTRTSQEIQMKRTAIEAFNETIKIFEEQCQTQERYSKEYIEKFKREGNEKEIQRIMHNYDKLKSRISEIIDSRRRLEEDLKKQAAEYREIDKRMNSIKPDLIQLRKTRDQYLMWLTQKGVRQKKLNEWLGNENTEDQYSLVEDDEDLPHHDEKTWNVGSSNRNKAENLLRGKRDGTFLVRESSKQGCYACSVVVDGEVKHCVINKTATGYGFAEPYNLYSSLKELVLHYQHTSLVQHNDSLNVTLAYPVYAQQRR
Protocol: as §4, §5

[4] = tested on: PI3K/AKT signaling in SF295 cells; assay: immunoblotting of PI3K/AKT signaling in SF295 cells; assay type: cell-based; conditions: for AKT activity: 100 μM peptide
Protocol: SF295 cells were treated with 200 μM Ante-Selectide-18 for 4 days with a replenishment of fresh peptide every day. The vehicle was used as the control. PI3K/AKT signaling was analyzed using immunoblotting. Three signaling pathways (GSK3b, RAC1/CDC42, and MTOR) are shown. ACTB is the loading control.
Invasion molecules RAC1/CDC42 and MMPs are shown. Images were quantified using Image J. 0 h time point is set as 1.0. […] Apoptosis molecules FOXO3, BIM, and c-CASP3 are shown. (FIG. 9C) Invasion/survival signaling downstream of p110p.
(§6) (FIG. 12A) p110βC2in. CPP: cell-penetrating peptide. Simulated p110βC2in (rainbow as represented in greyscale) is shown. (FIG. 12B) FITC-p110βC2in in LN229/GSCs was imaged using a fluorescence microscope. Upper: FITC; lower: bright view. (FIG. 12C) PI3K/AKT activity affected by 100 μM p110βC2in (+) or C2Scramble-1 (−). (FIG. 12D) MTS Cell viability assay. Cells were treated with 50 μM peptides for 4 days. Student t test was used to determine P values.
In FIG. 3 Applicant tested whether Ante-Selectide-18 affects PI3K signaling in GBM cells. […] In contrast, another PI3K/AKT downstream target MTOR was not inhibited by this peptide.

SF295 cells [5] = assay: MTS cell viability assay; assay type: cell-based; conditions: 50 μM peptides, 4 days
Protocol: as §6
Cell viability was measured by the MTS assay. P values were determined using the student t test or one-way ANOVA. Error bars represent three independent experiments.
This scheme has been repeated in experiments presented hereafter. Cell viability was determined using the MTS viability assay. Percentages of cell viability were obtained by normalizing the MTS readings of treatment groups to that of DMSO group. (FIG. 34B) Scores of Excess Over Bliss (EOB) calculated using the Bliss Independence model. The drug combination is synergistic if EOB is more than 0%, additive if EOB equals to 0%, or antagonistic if EOB is less than 0%. […] (FIG. 34D) EOB scores of drug combinations in LN229 and VTC-001 cells. (FIG. 34E) Caspase 3/7 activity in VTC-103 and VTC-001 cells. The activity of cleaved caspase 3/7 (active) was determined using a luminescence assay. Shown are luminescence readings. (FIG. 34F) EOB scores of drug combinations in VTC-103 and VTC-001 cells. […] SF295 cells were subcutaneously injected into immuno-deficient mice. […] Tumor volumes are shown. […] Cell viability was determined using the MTS viability assay. Percentages of cell viability were obtained by normalizing the MTS readings of treatment groups to that of shNS group. […]
Cell viability was determined by the MTS cell viability assay (Promega) as described previously 21,24-27. […] At each hour time point, the absorbance at 490 nm was measured using a FilterMax F3 microplate reader (Molecular Devices, LLC) according to the manufacturer's instructions. Percent cell viability was obtained by dividing the absorbance of treatment groups to those of untreated and respective vehicle control groups.

[6] = 200 μM, 4 days, fresh peptide every day

Compound: Cc1cc([C@@H](C)Nc2ccccc2C(=O)O)c2nc(N3CCOCC3)cc(=O)n2c1 [AZD6482]
sensitivity to AZD6482 (MDA-MB-435S cells): not sensitive and not | cytotoxicity (p110β^hyper cells; CellTiter Blue): cytotoxic | PI3K activity (PI3K in SK-MEL-94 cells): inactivated PI3K | PI3K activity (PI3K in SK-MEL-147 cells): not

Compound: Nc1cc(C(F)(F)F)c(-c2cc(N3CCOCC3)nc(N3CCOCC3)n2)cn1 [BKM120]
cell migration (LN229/GSCs [1]): inhibited the migration | cell migration (SF295 cells [2]): inhibited the migration

Compound: CC(C)(C)NS(=O)(=O)c1cncc(-c2cc(F)c3nc(N)nn3c2)c1 [CZC24832]
selective inhibition of cell viability (p110β^hyper cells): did not show a selective inhibition of cell viability

Compound: Cc1c(Cn2c(C)nc3c(C(=O)O)cc(N4CCOCC4)cc32)cccc1C(F)(F)F [GSK2636771]
tumor growth in mice (tumor growth in mice): slow down tumor growth

Compound: Nc1nc2cc(-c3ccc4ncc(C(=O)N5CCOCC5)n4c3)ccc2o1 [MLN1117]
selective inhibition of cell viability (p110β^hyper cells): did not show a selective inhibition of cell viability

Compound: Cc1ccc([N+](=O)[O-])cc1S(=O)(=O)N(C)/N=C/c1cnc2ccc(Br)cn12 [PIK-75]
AKT activation / selectivity (AKT): non-selectively inhibits AKT and ERK

pIC50 (LN229/GSCs [3]): 4.00
Compound: Cn1nnc2c(C(N)=O)ncn2c1=O [TMZ, temozolomide]

activity of p110b (p110b): didn't inactivate p110β
Compound: IYKTSKTRSQKTKIKPNT (Scrambled control peptide) [scrambled peptide]

activity of p110b (p110b): inhibits the activity | activity of p110b (p110b; listed as ante-Selectide-18): Only Inhibits p110b | pIC50 (p110b; increasing doses): 6.98 | activity of PI3K subunit p110c (p110c): does not affect | activity of PI3K subunit p110γ (p110γ): does not affect | activity of PI3K subunit p110δ (p110δ): does not affect
Compound: RQPKIWFPNRRKPWKKTKKSTKTINPSKYQTIRK [Ante-Selectide-18]
MTOR (PI3K/AKT downstream target) [4, 6]: not inhibited | active forms of GSK3b and RAC1/CDC42 [4, 6]: remarkable decrease | levels of phosphorylated form of AKT [4, 6]: substantially reduced

Compound: RRRRRRRRTKKSTKTINPSKYQTIRK (p110bC2in - Selectide-18 with a cell penetrating peptide) [p110βC2in]
AKT activity [4]: blocked AKT activity | cell viability (SF295 cells [5]): suppressed cell viability

Compound: scramble peptide: control C2Scramble peptide, e.g. TYKTSKRISKQTIKKPNT fused with RRRRRRRR (IYKTSKTRSQKTKIKPNT)
AKT activity [4]: not | cell viability (SF295 cells [5]): not
